Results published in patent publication US12479816B2, “20-HETE formation inhibitors” (UNIVERSITY OF PITTSBURGH—OF THE COMMONWEALTH SYSTEM OF …, priority 2019, dated 2025).
Like-named read-outs stand apart in the source and are kept apart here.

Legend:
[1] = tested on: 20-HETE formation (CYP4) in HLM; assay: Inhibition of 20-HETE formation at 250 or 500 nM in HLM microsomal incubations; type: biochemical, human; settings: 500 nM compound; HLM 300 μg/ml, AA 100 μM, 20 min
Method in brief: (§1)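 Protein 300 μg/ml (microsomes) / 25 pmol/mL (rCYP4F2); AA 100 μM; NADPH 1 mM start; KPi 0.12 M + 5 mM MgCl2; 20 min, 37° C. Read-out: 20-HETE by UPLC-MS/MS (d6 IS), % of vehicle, n=3.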

[2] = tested on: 20-HETE formation (CYP4) in HLM; assay: IC50 determination, 20-HETE formation in HLM; type: biochemical, human; settings: HLM 300 μg/ml, AA 100 μM, 12 concentrations
Method: (§2) Microsomal incubations contained HLM, RLM (300 μg/ml), AA (100 μM), NADPH (1 mM) and test compounds at 12 concentrations (0.1 nM-50 μM) in a 1 ml total volume in microsomal incubation buffer (0.12 M potassium phosphate buffer containing 5 mM magnesium chloride). Reaction was started by adding NADPH to the incubates and was carried out at 37° C. in a shaking water bath for 20 min. Reaction was stopped by placing tubes on ice, followed by adding 12.5 μl 20-HETE-d6 as internal standard to each sample. Microsomal incubations were extracted with 3 ml ethyl ether twice, dried down under nitrogen gas and reconstituted in 125 μl 80:20 methanol:deionized H2O for analysis. 20-HETE formation was quantified using the validated UPLC-MS/MS assay described above and normalized by vehicle group. HET0016 (250 nM) was used as positive control. Incubates without NADPH group served as the negative control. IC50 was determined by fitting the dose-response curve using Graphpad Prism nonlinear regression.

[3] = target: T1, rCYP4F2 (Homo sapiens, UniProt P78329); assay: Inhibition of 20-HETE formation at 250 or 500 nM in rCYP4F2 incubations; type: biochemical; settings: 500 nM compound; rCYP4F2 25 pmol/mL; read-out: rCYP4F2 % inh. @ 500 nM
T1 sequence (P78329 5-520): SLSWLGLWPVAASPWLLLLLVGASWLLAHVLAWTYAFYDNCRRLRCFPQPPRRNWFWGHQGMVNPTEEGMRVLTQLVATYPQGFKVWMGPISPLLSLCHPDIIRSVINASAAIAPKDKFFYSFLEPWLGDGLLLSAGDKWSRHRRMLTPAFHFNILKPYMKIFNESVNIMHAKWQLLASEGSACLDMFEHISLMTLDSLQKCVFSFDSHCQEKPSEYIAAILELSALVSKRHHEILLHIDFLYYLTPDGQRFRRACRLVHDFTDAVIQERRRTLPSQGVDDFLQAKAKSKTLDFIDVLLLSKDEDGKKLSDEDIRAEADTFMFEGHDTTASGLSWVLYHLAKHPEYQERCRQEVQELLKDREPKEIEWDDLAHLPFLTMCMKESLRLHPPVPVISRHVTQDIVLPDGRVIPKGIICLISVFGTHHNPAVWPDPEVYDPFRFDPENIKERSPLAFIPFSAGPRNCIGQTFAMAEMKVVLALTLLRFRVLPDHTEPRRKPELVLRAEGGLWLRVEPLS
Method in brief: as §1

[4] = target: formation of EETs and DiHETs (epoxygenase activity) in HLM; assay: Selectivity: inhibition of EETs and DiHETs formation (epoxygenase activity) in HLM; type: biochemical, human; settings: for IC50: sum of EETs and DiHETs
Method: Selectivity of compounds for inhibition of 20-HETE formation vs inhibition of formation of 8,9-, 11,12-, 14,15-EET and 5,6-, 8,9-, 11,12-, 14,15-DiHETs was assessed via the simultaneous monitor of formation of 20-HETE and those metabolites under the UPLC-MS/MS assay conditions described above using HLM incubations and the same 12 test compound concentrations (0.1 nM-[…]) used for the IC50 determination experiments. At each of the 12 concentrations, the selectivity of 20-HETE inhibition over the other metabolites was compared. Epoxygenase activity was assessed by the sum of EETs and DiHETEs as percentage of control.

[5] = HLM stability determination; type: in vitro ADME, human; settings: HLM 500 μg/ml, 1 μM compound, NADPH, relative to 0 min
Method: HLM stability determinations shown in Table 3 were obtained as follows. Microsomal incubates contained HLM (500 μg/ml), test compounds (1 μM) and NADPH (1.3 mM) in a 1 ml total volume of microsomal incubation buffer (0.12 M potassium phosphate buffer containing 5 mM magnesium chloride). Reaction was started by adding NADPH to the incubates and was carried out at 37° C. in a shaking water bath for 60 min. At 0, 15, 30, 45, 60 min, a 50 μl aliquot of incubates was taken out and reaction was stopped by adding aliquot into 200 μl ice-cold acetonitrile. After centrifugation at 14000×g for 5 min, 200 μl supernatant was taken out for UPLC-MS/MS analysis as described above. Values at 0 min were used as corresponding control for test compounds. Varapamil, metoprolol, and warfarin, categorized as fast, moderate and slow metabolism, were used as positive control. Incubates without NADPH group served as negative control.

[6] = tested on: 20-HETE formation (CYP4) in RKM; assay: Inhibition of 20-HETE formation at 250 or 500 nM in RKM microsomal incubations; type: biochemical, rat; settings: 500 nM compound; RKM 300 μg/ml
Method in brief: as §1

[7] = tested on: 20-HETE formation (CYP4) in RLM; assay: Inhibition of 20-HETE formation at 250 or 500 nM in RLM microsomal incubations; type: biochemical, rat; settings: 500 nM compound; RLM 300 μg/ml
Method in brief: as §1

[8] = Turbidometric solubility determination; type: physicochemical; settings: PBS with 1% DMSO, aqueous buffer, kinetic from dmso stock, room temperature
Method in brief: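 Precipitation was detected as a significant rise in absorbance at 620 nm over background, and this point set the maximum solubility. Compound was tested in PBS with 1% DMSO at final concentrations from 0 to 600 μM, in triplicate, after 2 h of shaking at room temperature.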

[9] = tested on: 20-HETE formation (CYP4) in RLM; assay: IC50 determination, 20-HETE formation in RLM; type: biochemical, rat; settings: RLM 300 μg/ml, AA 100 μM, 12 concentrations
Method: as §2

## c1ccc(CC2CCN(c3ccn[nH]3)CC2)cc1 [Compound 2, 4-Benzyl-1-(1H-pyrazol-5-yl)piperidine]
[1]
  HLM % inh. @ 500 nM: 59.90%
[2]
  IC50: 0.15 µM
[3]
  inhibition at 0.5 µM: 47.6%
[4]
  IC50: > 50000 nM
[5]
  Stability HLM % @ 30 min: 61%
[6]
  RKM % inh. @ 500 nM: 0.00%
[7]
  RLM % inh. @ 500 nM: 0.00%

## COc1cccc(C2CCN(c3ccn[nH]3)CC2)c1 [Compound 7, 4-(3-Methoxyphenyl)-1-(1H-pyrazol-5-yl)piperidine]
[1]
  HLM % inh. @ 500 nM: 51.70%
[2]
  IC50: 0.19 µM
[3]
  inhibition at 0.5 µM: 6.5%
[4]; at 50,000 (nM per column head)
  EETs Inhibition, % @ 50,000: 2.6% @ 50,000
[6]
  RKM % inh. @ 500 nM: 0.00%
[7]
  RLM % inh. @ 500 nM: 42.30%
[8]; OD620, read-out: Max Solub
  solubility at 2 h: 494 µM
[8]; read-out: Solubility_ug/mL
  solubility at 2 h: 127 µg/mL

## COc1cccc(C2CCN(c3cn[nH]c3)CC2)c1 [Compound 8, 4-(3-Methoxyphenyl)-1-(1H-pyrazol-4-yl)piperidine]
[1]
  HLM % inh. @ 500 nM: 62.70%
[2]
  IC50: 0.17 µM
[3]
  inhibition at 0.5 µM: 48.9%
[4]
  IC50: > 50000 nM
[6]
  RKM % inh. @ 500 nM: 0.00%
[7]
  RLM % inh. @ 500 nM: 45.50%
[8]; OD620, read-out: Max Solub
  solubility at 2 h: 111 µM
[8]; read-out: Solubility_ug/mL
  solubility at 2 h: 29 µg/mL

## CC(=O)Nc1ccc(C2CCN(c3cn[nH]c3)CC2)cc1 [Compound 30, N-(4-(1-(1H-Pyrazol-4-yl)piperidin-4-yl)phenyl)acetamide]
[1]
  HLM % inh. @ 500 nM: 86.00%
[2]
  IC50: 0.05 µM
[3]
  inhibition at 0.5 µM: 95%
[5]
  Stability HLM % @ 30 min: 0%
[6]
  RKM % inh. @ 500 nM: 40.00%
[7]
  RLM % inh. @ 500 nM: 37.00%
[8]; OD620, read-out: Max Solub
  solubility at 2 h: 482 µM
[8]; read-out: Solubility_ug/mL
  solubility at 2 h: 137 µg/mL

## COc1ccc(C2CCN(c3cn[nH]c3)CC2)cc1F [Compound 44, 4-(3-Fluoro-4-methoxyphenyl)-1-(1H-pyrazol-4-yl)piperidine]
[1]
  HLM % inh. @ 500 nM: 85.00%
[2]
  IC50: 0.05 µM
[3]
  inhibition at 0.5 µM: 86%
[5]
  Stability HLM % @ 30 min: 100%
[6]
  RKM % inh. @ 500 nM: 21.00%
[7]
  RLM % inh. @ 500 nM: 42.00%
[9]
  IC50: 340 nM
